Experimental findings from US12503485B2, “Human aminosterol ENT-03 compounds, related compositions comprising the same, and methods of using the same” (Enterin, Inc., priority 2019, dated 2025) are described below.

Bounds are passed on as bounds.

One test addresses T1, PTPN2/TC-PTP (Homo sapiens, UniProt P17706).
T1 construct: purchased Recation Biology Inc
T1 sequence (P17706 1-415): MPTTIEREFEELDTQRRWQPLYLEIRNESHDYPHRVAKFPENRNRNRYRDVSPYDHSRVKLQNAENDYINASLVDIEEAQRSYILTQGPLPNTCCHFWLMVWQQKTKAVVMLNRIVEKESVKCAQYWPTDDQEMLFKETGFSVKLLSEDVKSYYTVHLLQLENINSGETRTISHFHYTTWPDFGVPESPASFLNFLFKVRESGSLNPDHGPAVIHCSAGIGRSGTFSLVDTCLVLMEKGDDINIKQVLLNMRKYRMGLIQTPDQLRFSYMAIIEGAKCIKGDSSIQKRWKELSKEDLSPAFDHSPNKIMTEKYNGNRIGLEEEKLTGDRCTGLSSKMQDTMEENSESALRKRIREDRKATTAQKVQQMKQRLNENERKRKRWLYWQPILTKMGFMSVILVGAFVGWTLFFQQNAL
The experiment in a line: Phosphatase assay PTPN2/TC-PTP. It counts as biochemical. As to conditions: for IC50: Table 2C, read-out: Compound IC50 (M) PTPN2/TC-PTP.

For another test, the target named is T2, PTPRC/CD45 (Homo sapiens, UniProt P08575).
T2 construct: purchased Recation Biology Inc
T2 sequence (P08575 26-1306): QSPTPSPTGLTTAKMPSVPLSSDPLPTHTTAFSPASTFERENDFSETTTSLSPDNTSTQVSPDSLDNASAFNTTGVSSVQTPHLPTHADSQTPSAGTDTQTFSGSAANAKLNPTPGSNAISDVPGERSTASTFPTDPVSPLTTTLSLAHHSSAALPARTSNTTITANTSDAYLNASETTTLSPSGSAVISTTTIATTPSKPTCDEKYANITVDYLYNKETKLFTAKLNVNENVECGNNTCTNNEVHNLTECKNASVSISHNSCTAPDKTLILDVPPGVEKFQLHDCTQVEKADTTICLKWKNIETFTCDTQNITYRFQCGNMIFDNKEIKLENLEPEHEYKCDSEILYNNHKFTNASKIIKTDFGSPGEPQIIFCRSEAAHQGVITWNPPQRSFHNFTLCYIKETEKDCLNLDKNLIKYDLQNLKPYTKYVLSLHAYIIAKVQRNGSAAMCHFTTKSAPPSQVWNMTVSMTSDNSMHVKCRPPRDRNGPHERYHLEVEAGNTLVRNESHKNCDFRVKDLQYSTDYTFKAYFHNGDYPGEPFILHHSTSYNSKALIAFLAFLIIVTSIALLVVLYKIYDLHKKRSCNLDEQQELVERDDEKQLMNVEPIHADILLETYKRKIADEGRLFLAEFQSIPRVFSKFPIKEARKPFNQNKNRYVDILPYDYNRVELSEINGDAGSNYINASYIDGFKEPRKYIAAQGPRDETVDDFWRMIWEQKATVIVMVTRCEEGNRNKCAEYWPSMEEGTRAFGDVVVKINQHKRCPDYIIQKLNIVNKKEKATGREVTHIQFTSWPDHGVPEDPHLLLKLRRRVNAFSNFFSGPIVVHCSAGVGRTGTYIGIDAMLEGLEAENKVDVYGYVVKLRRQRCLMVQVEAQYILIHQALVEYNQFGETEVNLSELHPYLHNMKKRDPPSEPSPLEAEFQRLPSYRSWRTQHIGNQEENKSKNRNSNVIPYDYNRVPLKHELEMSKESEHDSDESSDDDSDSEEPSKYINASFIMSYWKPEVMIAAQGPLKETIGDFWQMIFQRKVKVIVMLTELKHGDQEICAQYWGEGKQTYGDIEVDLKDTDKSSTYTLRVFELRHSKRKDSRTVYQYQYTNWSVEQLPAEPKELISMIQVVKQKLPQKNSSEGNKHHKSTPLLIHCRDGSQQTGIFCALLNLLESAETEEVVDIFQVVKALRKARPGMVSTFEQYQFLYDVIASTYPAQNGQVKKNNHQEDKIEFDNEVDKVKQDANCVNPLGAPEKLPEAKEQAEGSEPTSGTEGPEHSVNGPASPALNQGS
Description: Phosphatase assay PTPRC/CD45. It counts as biochemical.

A short description of test [1]: Weight gain in growing male mice. Format: in vivo. As to conditions: growing male mice about 25 g, similar dosing regimen. On the procedure: In a second experiment, growing male mice, about 25 grams, were administered either compound following a similar dosing regimen. As in the previous experiment, both compounds affected weight gain.
A short description of test [2]: Weight loss in male Swiss Webster mice, i.p. dosing. It counts as in vivo. As to conditions: male Swiss Webster mice about 50 g, i.p. 10 mg/kg every other day; for loss of starting body weight: by 27 days. An excerpt:
Food was provided ad lib.

Another test addresses T3, PP1A (Homo sapiens, UniProt P62136).
T3 construct: purchased Recation Biology Inc
Description: Phosphatase assay PP1A (DiFMUP fluorescence). It counts as biochemical. As to conditions: for IC50: Table 2B, read-out: Compound IC50 (M) PP1A.

Another test deals with T4, PP1B (Homo sapiens, UniProt P62140).
T4 construct: purchased Recation Biology Inc
T4 sequence (P62140 whole entry): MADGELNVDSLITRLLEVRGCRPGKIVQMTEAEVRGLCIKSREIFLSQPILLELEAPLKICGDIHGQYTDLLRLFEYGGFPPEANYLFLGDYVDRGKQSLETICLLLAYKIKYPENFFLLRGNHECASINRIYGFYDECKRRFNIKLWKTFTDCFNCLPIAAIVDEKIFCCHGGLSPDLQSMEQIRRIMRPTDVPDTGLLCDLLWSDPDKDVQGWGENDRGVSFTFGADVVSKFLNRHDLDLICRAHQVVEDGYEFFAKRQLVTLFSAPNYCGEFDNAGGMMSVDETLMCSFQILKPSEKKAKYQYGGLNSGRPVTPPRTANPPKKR
The experiment in a line: Phosphatase assay PP1B (DiFMUP fluorescence). The settings on record: for IC50: Table 2B, read-out: Compound IC50 (M) PP1B. Format: biochemical.

The target in the next test is T5, PTPN11/SHP2-FL (E76K) (Homo sapiens, UniProt Q06124, E76K).
T5 sequence (Q06124 2-597 isoform Q06124-1 E76K): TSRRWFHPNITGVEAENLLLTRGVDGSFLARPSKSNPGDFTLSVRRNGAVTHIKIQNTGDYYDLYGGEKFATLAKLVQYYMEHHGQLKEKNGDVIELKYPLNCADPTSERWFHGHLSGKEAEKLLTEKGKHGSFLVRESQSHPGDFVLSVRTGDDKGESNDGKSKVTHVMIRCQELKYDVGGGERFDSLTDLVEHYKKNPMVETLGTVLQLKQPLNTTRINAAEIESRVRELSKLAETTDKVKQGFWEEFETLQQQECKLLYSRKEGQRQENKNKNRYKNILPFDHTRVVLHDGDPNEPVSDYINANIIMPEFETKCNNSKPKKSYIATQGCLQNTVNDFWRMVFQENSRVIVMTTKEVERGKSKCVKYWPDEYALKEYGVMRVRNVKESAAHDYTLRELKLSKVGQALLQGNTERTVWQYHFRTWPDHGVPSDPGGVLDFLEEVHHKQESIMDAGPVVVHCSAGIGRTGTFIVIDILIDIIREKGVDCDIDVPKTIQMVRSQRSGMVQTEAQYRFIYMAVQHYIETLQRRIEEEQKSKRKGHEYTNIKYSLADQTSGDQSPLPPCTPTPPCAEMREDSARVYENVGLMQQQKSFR
The experiment in a line: Phosphatase assay PTPN11/SHP2-FL (E76K).

The target of the next test is T6, PTPN6/SHP1 (Homo sapiens, UniProt P29350).
T6 construct: purchased Recation Biology Inc
T6 sequence (P29350 whole entry): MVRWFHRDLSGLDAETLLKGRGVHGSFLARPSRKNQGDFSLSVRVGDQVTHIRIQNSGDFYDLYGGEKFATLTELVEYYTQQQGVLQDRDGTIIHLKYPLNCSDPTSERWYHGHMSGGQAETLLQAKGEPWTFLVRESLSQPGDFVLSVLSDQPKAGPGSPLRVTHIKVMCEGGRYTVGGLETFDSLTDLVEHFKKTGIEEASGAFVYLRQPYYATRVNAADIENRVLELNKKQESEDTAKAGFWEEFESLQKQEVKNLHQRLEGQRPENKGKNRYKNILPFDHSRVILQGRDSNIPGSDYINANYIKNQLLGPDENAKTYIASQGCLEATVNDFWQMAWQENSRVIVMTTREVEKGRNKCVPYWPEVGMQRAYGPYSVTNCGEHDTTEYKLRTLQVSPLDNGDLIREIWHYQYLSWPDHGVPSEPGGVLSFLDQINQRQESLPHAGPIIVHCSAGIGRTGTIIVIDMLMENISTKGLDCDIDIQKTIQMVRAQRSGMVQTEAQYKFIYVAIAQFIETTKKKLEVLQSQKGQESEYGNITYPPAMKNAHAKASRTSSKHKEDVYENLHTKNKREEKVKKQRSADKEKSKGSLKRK
The experiment in a line: Phosphatase assay PTPN6/SHP1. It counts as biochemical. As to conditions: for IC50: Table 2B, read-out: Compound IC50 (M) PTPN6/SHP1.

T3 sequence (P62136 whole entry): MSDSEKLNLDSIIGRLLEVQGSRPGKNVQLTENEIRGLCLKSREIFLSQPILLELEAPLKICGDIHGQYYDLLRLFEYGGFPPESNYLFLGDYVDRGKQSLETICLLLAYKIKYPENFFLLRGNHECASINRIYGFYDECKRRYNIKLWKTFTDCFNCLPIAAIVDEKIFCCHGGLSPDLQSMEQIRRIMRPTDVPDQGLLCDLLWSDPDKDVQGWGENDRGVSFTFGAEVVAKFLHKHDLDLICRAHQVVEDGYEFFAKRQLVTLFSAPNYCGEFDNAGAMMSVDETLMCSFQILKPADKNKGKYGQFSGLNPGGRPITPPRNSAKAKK

Regarding `CC(C)[C@@H](CC[C@@H](C)[C@H]1CC[C@H]2[C@@H]3[C@H](O)C[C@H]4C[C@@H](NCCCNCCCCNCCCN)CC[C@]4(C)[C@H]3CC[C@]12C)OS(=O)(=O)O` (single isomer, unassigned) [ENT-02, trodusquemine], on PTPN2/TC-PTP, the IC50 is above 0.0001 M. Also, the “activity on PTPRC/CD45, in words” value on PTPRC/CD45 was “target”. In test [1], the “effect on growth, in words” value is reported as “suppressed growth”. Moreover, in test [2], the “effect on weight, in words” value is “more severe decline”; the nadir of weight is around 16 days; the “recovery to the starting weight” value is around 45 days; the “loss of starting body weight” value is recorded as “about 10%”. Further, at PP1A, the IC50 was above 0.0001 M. Besides, at PP1B, the IC50 is above 0.0001 M. Also, at PTPN11/SHP2-FL (E76K), the “inhibition of PTPN11 (E76K), in words” value is recorded as “potently inhibit”. On PTPN6/SHP1, the “activity at PTPN6/SHP1, in words” value is on record as “Neither compound inhibits” and the IC50 was above 0.0001 M.

`CC(CCCC(C)C1CCC2C3C(O)CC4CC(NCCCNCCCCNCCCN)CCC4(C)C3CCC12C)C(=O)O` (single isomer, unassigned; ent-03) [ENT-03, 3-β-Spermino-7α-hydroxy-5α-cholestanoic acid]: at PTPN2/TC-PTP, the “activity at PTPN2, in words” value is “inactive” and the IC50 is above 0.0001 M. At PTPRC/CD45, the “activity on PTPRC/CD45, in words” value is “target”. Also, the IC50 on PTPRC/CD45 (Table 2B, read-out: Compound IC50 (M) PTPRC/CD45) was 5.71e-07 M. Also, the “effect on growth, in words” value in test [1] is “continued normal growth”. Further, in test [2], the “effect on weight, in words” value is listed as “weight loss”; the nadir of weight was around 16 days; the “recovery to the starting weight” value is around 45 days; the “loss of starting body weight” value is “about 10%”. Besides, on PP1A, the “activity at PP1A, in words” value is “inactive” and the IC50 was above 0.0001 M. For the same molecule, at PP1B, the “activity at PP1B, in words” value is “inactive” and the IC50 was above 0.0001 M. The “inhibition of PTPN11 (E76K), in words” value against PTPN11/SHP2-FL (E76K) was “potently inhibit”. Besides, on PTPN6/SHP1, the IC50 is above 0.0001 M.
